Measured values as given in US9522907B2, “Anticancer agent and process for the preparation thereof” (COUNCIL OF SCIENTIFIC & INDUSTRIAL RESEARCH, priority 2014, dated 2016).

Tests used:
T-47D = test: NCI in vitro cytotoxicity, T-47D; settings: Homo sapiens, T47D
Source text: (§3) For these compounds results are expressed as growth inhibition (GI50) values as per NCI protocol.

HS 578T = test: NCI in vitro cytotoxicity, HS 578T; settings: Homo sapiens
Source text: as §3

NCI-H522 = test: NCI in vitro cytotoxicity, NCI-H522; settings: Homo sapiens
Source text: as §3

UO-31 = test: NCI in vitro cytotoxicity, UO-31; settings: Homo sapiens
Source text: as §3

NCI-H460 = test: NCI in vitro cytotoxicity, NCI-H460; settings: Homo sapiens
Source text: as §3

NCI-H226 = test: NCI in vitro cytotoxicity, NCI-H226; settings: Homo sapiens
Source text: as §3

EKVX = test: NCI in vitro cytotoxicity, EKVX; settings: Homo sapiens
Source text: as §3

HCC-2998 = test: NCI in vitro cytotoxicity, HCC-2998; settings: Homo sapiens
Source text: as §3

MOLT-4 = test: NCI in vitro cytotoxicity, MOLT-4; settings: Homo sapiens
Source text: as §3

SK-MEL-2 = test: NCI in vitro cytotoxicity, SK-MEL-2; settings: Homo sapiens
Source text: as §3

CAKI-1 = test: NCI in vitro cytotoxicity, CAKI-1; settings: Homo sapiens
Source text: as §3

SK-MEL-5 = test: NCI in vitro cytotoxicity, SK-MEL-5; settings: Homo sapiens
Source text: as §3

HL-60 (TB) = test: NCI in vitro cytotoxicity, HL-60 (TB); format: cell-based; settings: Homo sapiens, Leukemia
HCT-15 = test: NCI in vitro cytotoxicity, HCT-15; settings: Homo sapiens
Source text: as §3

A549/ATCC = test: NCI in vitro cytotoxicity, A549/ATCC; settings: Homo sapiens
Source text: as §3

UACC-62 = test: NCI in vitro cytotoxicity, UACC-62; settings: Homo sapiens
Source text: as §3

MCF-7 = test: NCI in vitro cytotoxicity, MCF-7; settings: Homo sapiens, MCF7
Source text: as §3

OVCAR-5 = test: NCI in vitro cytotoxicity, OVCAR-5; settings: Homo sapiens
Source text: as §3

OVCAR-3 = test: NCI in vitro cytotoxicity, OVCAR-3; settings: Homo sapiens
Source text: as §3

TK-10 = test: NCI in vitro cytotoxicity, TK-10; settings: Homo sapiens
Source text: as §3

A498 = test: NCI in vitro cytotoxicity, A498; settings: Homo sapiens
Source text: as §3

SK-MEL-28 = test: NCI in vitro cytotoxicity, SK-MEL-28; settings: Homo sapiens
Source text: as §3

LOX IMVI = test: NCI in vitro cytotoxicity, LOX IMVI; settings: Homo sapiens
Source text: as §3

CCRF-CEM = test: NCI in vitro cytotoxicity, CCRF-CEM; settings: Homo sapiens
Source text: as §3

M14 = test: NCI in vitro cytotoxicity, M14; settings: Homo sapiens
Source text: as §3

U251 = test: NCI in vitro cytotoxicity, U251; settings: Homo sapiens, U-251
Source text: as §3

[1] = tested on: Leukemia cancer cell lines; test: cells; format: cell-based; settings: for LC50 (50% lethal concentration, NCI mean graph midpoint): read-out: Log10 LC50 mean graph midpoint (MG_MID) (converted)
Source text: (§1) The mean graph midpoint values of Log10 GI50 as well as Log10 LC50 for the compounds 2i, 5i and Hoechst 33258 (NSC-322921) is listed in Table 2.
(§2) Each cancer type represents the average of six to eight different cancer cell lines.

Colon cancer cell lines = test: cells; format: cell-based; settings: for LC50: read-out: Log10 LC50 mean graph midpoint (MG_MID) (converted)
Source text: as §1, §2

[2] = tested on: Non-small-cell lung cancer cell lines; test: cells; format: cell-based; settings: for LC50 (lethal concentration 50%): read-out: Log10 LC50 mean graph midpoint (MG_MID) (converted)
Source text: as §1, §2

Renal cancer cell lines = test: cells; format: cell-based; settings: for CC50: read-out: Log10 LC50 mean graph midpoint (MG_MID) (converted)
Source text: as §1, §2

Breast cancer cell lines = test: cells; format: cell-based; settings: for CC50: read-out: Log10 LC50 mean graph midpoint (MG_MID) (converted)
Source text: as §1, §2

[3] = tested on: Melanoma cancer cell lines; test: cells; format: cell-based; settings: for LC50: read-out: Log10 LC50 mean graph midpoint (MG_MID) (converted)
Source text: as §1, §2

[4] = tested on: Prostate cancer cell lines; test: cells; format: cell-based; settings: for CC50: read-out: Log10 LC50 mean graph midpoint (MG_MID) (converted)
Source text: as §1, §2

CNS cancer cell lines = test: cells; format: cell-based; settings: for CC50: read-out: Log10 LC50 mean graph midpoint (MG_MID) (converted)
Source text: as §1, §2

[5] = tested on: Ovarian cancer cell lines; test: cells; format: cell-based; settings: for CC50: read-out: Log10 LC50 mean graph midpoint (MG_MID) (converted)
Source text: as §1, §2

SF-268 = test: NCI in vitro cytotoxicity, SF-268; settings: Homo sapiens
Source text: as §3

NCI/ADR-RES = test: NCI in vitro cytotoxicity, NCI/ADR-RES; settings: Homo sapiens
Source text: as §3

PC-3 = test: NCI in vitro cytotoxicity, PC-3; settings: Homo sapiens
Source text: as §3

SK-OV-3 = test: NCI in vitro cytotoxicity, SK-OV-3; settings: Homo sapiens
Source text: as §3

SNB-75 = test: NCI in vitro cytotoxicity, SNB-75; settings: Homo sapiens
Source text: as §3

SNB-19 = test: NCI in vitro cytotoxicity, SNB-19; settings: Homo sapiens
Source text: as §3

`COc1ccc2[nH]c(-c3ccc(-c4noc(-c5cc(OC)c(OC)c(OC)c5)n4)cc3)nc2c1` [5i, 3-(4-(5-Methoxy-1H-benzo[d]imidazol-2-yl)phenyl)-5-(3,4,5-trimethoxyphenyl)-1,2,4-oxadiazole] gave a GI50 (T-47D) of 14.7 µM, a GI50 (HS 578T) of 9.49 µM and a GI50 (NCI-H522) of 6.89 µM. It also gave a GI50 (UO-31) of 1.89 µM, a GI50 (NCI-H460) of 4.6 µM and a GI50 (NCI-H226) of 2.27 µM. For the same compound, the GI50 (EKVX) was 26.2 µM, the GI50 (HCC-2998) was 35.5 µM and the GI50 (MOLT-4) was 5.29 µM. It also gave a GI50 (SK-MEL-2) of 18.9 µM, a GI50 (CAKI-1) of 23.4 µM and a GI50 (SK-MEL-5) of 3.25 µM. For the same compound, the GI50 (HL-60 (TB)) was 2.02 µM, the GI50 (HCT-15) was 1.49 µM and the GI50 (A549/ATCC) was 5.65 µM. It also gave a GI50 (UACC-62) of 14 µM, a GI50 (MCF-7) of 1.08 µM and a GI50 (OVCAR-5) of 16.7 µM. For the same compound, the GI50 (OVCAR-3) was 42.5 µM, the GI50 (TK-10) was 4.62 µM and the GI50 (A498) was 28.5 µM. For the same compound, the GI50 (SK-MEL-28) was 9.59 µM, the GI50 (LOX IMVI) was 13.3 µM and the GI50 (CCRF-CEM) was 2.2 µM. For the same compound, the GI50 (M14) was 5.47 µM, the GI50 (U251) was 1.68 µM and the LC50 (50% lethal concentration, NCI mean graph midpoint) ([1]; Homo sapiens) was 100 µM. It also gave a GI50 ([1]; Homo sapiens, Leukemia, average of cell lines of the cancer type, read-out: Log10 GI50 mean graph midpoint (MG_MID) (converted)) of 3.31 µM, an LC50 (Colon cancer cell lines; Homo sapiens) of 85.1 µM and a GI50 (Colon cancer cell lines; Homo sapiens, Colon, average of cell lines of the cancer type, read-out: Log10 GI50 mean graph midpoint (MG_MID) (converted)) of 4.79 µM. The LC50 (lethal concentration 50%) ([2]; Homo sapiens) was 79.4 µM, the GI50 ([2]; Homo sapiens, Non-small-cell lung, average of cell lines of the cancer type, read-out: Log10 GI50 mean graph midpoint (MG_MID) (converted)) was 8.71 µM and the CC50 (Renal cancer cell lines; Homo sapiens) was 74.1 µM. It also gave a GI50 (Renal cancer cell lines; Homo sapiens, Renal, average of cell lines of the cancer type, read-out: Log10 GI50 mean graph midpoint (MG_MID) (converted)) of 14.5 µM, a CC50 (Breast cancer cell lines; Homo sapiens) of 79.4 µM and a GI50 (Breast cancer cell lines; Homo sapiens, Breast, average of cell lines of the cancer type, read-out: Log10 GI50 mean graph midpoint (MG_MID) (converted)) of 3.39 µM. For the same compound, the LC50 ([3]; Homo sapiens) was 83.2 µM, the GI50 ([3]; Homo sapiens, Melanoma, average of cell lines of the cancer type, read-out: Log10 GI50 mean graph midpoint (MG_MID) (converted)) was 7.59 µM and the CC50 ([4]; Homo sapiens) was 91.2 µM. It also gave a GI50 ([4]; Homo sapiens, Prostate, average of cell lines of the cancer type, read-out: Log10 GI50 mean graph midpoint (MG_MID) (converted)) of 14.1 µM, a CC50 (CNS cancer cell lines; Homo sapiens) of 44.7 µM and a GI50 (CNS cancer cell lines; Homo sapiens, CNS, average of cell lines of the cancer type, read-out: Log10 GI50 mean graph midpoint (MG_MID) (converted)) of 6.31 µM. The CC50 ([5]; Homo sapiens) was 67.6 µM, the GI50 ([5]; Homo sapiens, Ovarian, average of cell lines of the cancer type, read-out: Log10 GI50 mean graph midpoint (MG_MID) (converted)) was 7.59 µM and the GI50 (SF-268) was 7.13 µM. It also gave a GI50 (NCI/ADR-RES) of 3.32 µM, a GI50 (PC-3) of 240 µM and a GI50 (SK-OV-3) of 25.3 µM. For the same compound, the GI50 (SNB-75) was 12.5 µM and the GI50 (SNB-19) was 1.27 µM.

`COc1cc(-c2nc(-c3ccc(-c4nc5cc(F)ccc5[nH]4)cc3)no2)cc(OC)c1OC` [2i, 3-(4-(5-Fluoro-1H-benzo[d]imidazol-2-yl)phenyl)-5-(3,4,5-trimethoxyphenyl)-1,2,4-oxadiazole] was tested, and the GI50 (T-47D) was 2.72 µM, the GI50 (HS 578T) was 2.27 µM and the GI50 (NCI-H522) was 3.04 µM. For the same compound, the GI50 (UO-31) was 2.51 µM, the GI50 (NCI-H460) was 2.97 µM and the GI50 (NCI-H226) was 2.72 µM. For the same compound, the GI50 (EKVX) was 3.45 µM, the GI50 (HCC-2998) was 6.13 µM and the GI50 (MOLT-4) was 1.99 µM. It also gave a GI50 (SK-MEL-2) of 4.21 µM, a GI50 (CAKI-1) of 2.76 µM and a GI50 (SK-MEL-5) of 2.22 µM. The GI50 (HL-60 (TB)) was 2.24 µM, the GI50 (HCT-15) was 3.15 µM and the GI50 (A549/ATCC) was 3.42 µM. It also gave a GI50 (UACC-62) of 2.35 µM, a GI50 (MCF-7) of 2.88 µM and a GI50 (OVCAR-5) of 5.59 µM. The GI50 (OVCAR-3) was 2.56 µM, the GI50 (TK-10) was 8.27 µM and the GI50 (A498) was 4.19 µM. The GI50 (SK-MEL-28) was 3.78 µM, the GI50 (LOX IMVI) was 1.65 µM and the GI50 (CCRF-CEM) was 2.97 µM. It also gave a GI50 (M14) of 3.23 µM, a GI50 (U251) of 3.03 µM and an LC50 (50% lethal concentration, NCI mean graph midpoint) ([1]; Homo sapiens) of at least 100 µM. The “Log10 GI50 mean graph midpoint (MG_MID)” value ([1]; Leukemia, average of cell lines of the cancer type) was −5.64, the “Log10 GI50 mean graph midpoint (MG_MID)” value (Colon cancer cell lines; Colon, average of cell lines of the cancer type) was −5.44 and the LC50 (Colon cancer cell lines; Homo sapiens) was 75.9 µM. The LC50 (lethal concentration 50%) ([2]; Homo sapiens) was 75.9 µM, the “Log10 GI50 mean graph midpoint (MG_MID)” value ([2]; Non-small-cell lung, average of cell lines of the cancer type) was −5.47 and the CC50 (Renal cancer cell lines; Homo sapiens) was 79.4 µM. For the same compound, the “Log10 GI50 mean graph midpoint (MG_MID)” value (Renal cancer cell lines; Renal, average of cell lines of the cancer type) was −5.45, the “Log10 GI50 mean graph midpoint (MG_MID)” value (Breast cancer cell lines; Breast, average of cell lines of the cancer type) was −5.55 and the CC50 (Breast cancer cell lines; Homo sapiens) was 93.3 µM. The LC50 ([3]; Homo sapiens) was 35.5 µM, the “Log10 GI50 mean graph midpoint (MG_MID)” value ([3]; Melanoma, average of cell lines of the cancer type) was −5.55 and the CC50 ([4]; Homo sapiens) was at least 100 µM. For the same compound, the “Log10 GI50 mean graph midpoint (MG_MID)” value ([4]; Prostate, average of cell lines of the cancer type) was −5.51, the “Log10 GI50 mean graph midpoint (MG_MID)” value (CNS cancer cell lines; CNS, average of cell lines of the cancer type) was −5.39 and the CC50 (CNS cancer cell lines; Homo sapiens) was 91.2 µM. For the same compound, the CC50 ([5]; Homo sapiens) was 87.1 µM, the “Log10 GI50 mean graph midpoint (MG_MID)” value ([5]; Ovarian, average of cell lines of the cancer type) was −5.49 and the GI50 (SF-268) was 3.99 µM. It also gave a GI50 (NCI/ADR-RES) of 2.49 µM, a GI50 (PC-3) of 2.33 µM and a GI50 (SK-OV-3) of 4.12 µM. The GI50 (SNB-75) was 7.74 µM and the GI50 (SNB-19) was 5.62 µM.
